We go through 2 compounds from ChEMBL document CHEMBL5696442, “Discovery of type II inhibitors of TGFβ-activated kinase 1 (TAK1) and mitogen-activated protein kinase kinase kinase kinase 2 (MAP4K2)” (J Med Chem, 2015).

Test [1] deals with Tyrosine-protein kinase ABL1 (Homo sapiens), P00519 [M351T]. The experiment in a line: Inhibition of ABL1 M351T mutant (unknown origin) at 10 uM by Ambit Kinomescan binding assay relative to control.
The target of test [2] is T1, Eukaryotic elongation factor 2 kinase (Homo sapiens) (UniProt O00418).
T1 sequence (whole entry): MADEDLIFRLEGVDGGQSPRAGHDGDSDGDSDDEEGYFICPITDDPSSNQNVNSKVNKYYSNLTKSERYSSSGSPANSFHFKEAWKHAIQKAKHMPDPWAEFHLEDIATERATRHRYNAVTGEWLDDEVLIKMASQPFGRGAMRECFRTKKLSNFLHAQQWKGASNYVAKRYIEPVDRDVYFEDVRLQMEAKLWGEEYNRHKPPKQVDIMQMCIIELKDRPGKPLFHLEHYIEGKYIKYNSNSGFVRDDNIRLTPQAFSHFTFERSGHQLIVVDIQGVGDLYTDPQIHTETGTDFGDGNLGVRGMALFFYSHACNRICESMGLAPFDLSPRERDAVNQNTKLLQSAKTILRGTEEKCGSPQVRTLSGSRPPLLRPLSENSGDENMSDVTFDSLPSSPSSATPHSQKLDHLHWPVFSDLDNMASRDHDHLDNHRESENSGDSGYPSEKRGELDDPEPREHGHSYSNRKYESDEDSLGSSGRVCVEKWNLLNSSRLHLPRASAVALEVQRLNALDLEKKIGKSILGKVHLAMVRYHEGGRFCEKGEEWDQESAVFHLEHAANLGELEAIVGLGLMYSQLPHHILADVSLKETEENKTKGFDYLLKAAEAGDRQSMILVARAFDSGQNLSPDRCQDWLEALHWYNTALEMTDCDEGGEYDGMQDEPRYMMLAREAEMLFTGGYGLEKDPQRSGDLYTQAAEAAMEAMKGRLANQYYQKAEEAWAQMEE
In words: Inhibition of eEF2K ATP labeling site harbouring YIKYNSNSGFVR in human A-375 cells at 5 uM by KiNativ Profiling analysis relative to control. In kind it is cell-based.

Test [3] deals with Cyclin-dependent kinase 11B (Homo sapiens) (UniProt P21127). The experiment in a line: Inhibition of CDK11 Lys2 labeling site in human A-375 cells at 0.5 uM by KiNativ Profiling analysis relative to control. In kind it is cell-based.
Test [4] has as its target T2, Mitogen-activated protein kinase kinase kinase kinase 2 (Homo sapiens) (UniProt Q12851).
T2 sequence (whole entry): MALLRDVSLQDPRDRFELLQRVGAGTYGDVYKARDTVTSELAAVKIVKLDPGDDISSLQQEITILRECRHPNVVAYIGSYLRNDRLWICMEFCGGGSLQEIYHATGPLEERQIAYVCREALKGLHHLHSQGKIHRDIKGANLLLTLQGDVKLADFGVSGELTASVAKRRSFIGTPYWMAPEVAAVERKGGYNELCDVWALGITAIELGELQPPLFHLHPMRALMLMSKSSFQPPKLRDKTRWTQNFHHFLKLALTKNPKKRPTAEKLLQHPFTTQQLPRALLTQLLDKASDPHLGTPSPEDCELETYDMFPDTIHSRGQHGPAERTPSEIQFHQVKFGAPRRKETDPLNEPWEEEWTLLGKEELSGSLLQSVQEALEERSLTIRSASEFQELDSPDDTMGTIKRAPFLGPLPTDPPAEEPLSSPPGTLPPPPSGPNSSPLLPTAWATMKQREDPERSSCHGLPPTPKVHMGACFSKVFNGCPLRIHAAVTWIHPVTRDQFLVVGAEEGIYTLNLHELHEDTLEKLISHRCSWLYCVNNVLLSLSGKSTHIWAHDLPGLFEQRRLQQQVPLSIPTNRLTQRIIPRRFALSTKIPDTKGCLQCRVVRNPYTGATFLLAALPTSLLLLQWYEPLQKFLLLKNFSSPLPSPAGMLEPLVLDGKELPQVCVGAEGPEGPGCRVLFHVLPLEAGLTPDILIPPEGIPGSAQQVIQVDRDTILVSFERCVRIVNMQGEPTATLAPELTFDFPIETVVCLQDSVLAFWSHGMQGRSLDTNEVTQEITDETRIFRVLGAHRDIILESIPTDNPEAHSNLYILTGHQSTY
In words: Inhibition of MAP4K2 (GCK) Lys2 labeling site in human A-375 cells at 0.5 uM by KiNativ Profiling analysis relative to control. In kind it is cell-based.

Test [5] in a line: Inhibition of MARK2/3 K2 labeling site in human Huh-7 cells at 1 uM by KiNativ Profiling analysis relative to control. The note with it: condition cancer.
Test [6] addresses T3, PAN2-PAN3 deadenylation complex subunit PAN3 (Homo sapiens) (UniProt Q58A45).
T3 sequence (whole entry): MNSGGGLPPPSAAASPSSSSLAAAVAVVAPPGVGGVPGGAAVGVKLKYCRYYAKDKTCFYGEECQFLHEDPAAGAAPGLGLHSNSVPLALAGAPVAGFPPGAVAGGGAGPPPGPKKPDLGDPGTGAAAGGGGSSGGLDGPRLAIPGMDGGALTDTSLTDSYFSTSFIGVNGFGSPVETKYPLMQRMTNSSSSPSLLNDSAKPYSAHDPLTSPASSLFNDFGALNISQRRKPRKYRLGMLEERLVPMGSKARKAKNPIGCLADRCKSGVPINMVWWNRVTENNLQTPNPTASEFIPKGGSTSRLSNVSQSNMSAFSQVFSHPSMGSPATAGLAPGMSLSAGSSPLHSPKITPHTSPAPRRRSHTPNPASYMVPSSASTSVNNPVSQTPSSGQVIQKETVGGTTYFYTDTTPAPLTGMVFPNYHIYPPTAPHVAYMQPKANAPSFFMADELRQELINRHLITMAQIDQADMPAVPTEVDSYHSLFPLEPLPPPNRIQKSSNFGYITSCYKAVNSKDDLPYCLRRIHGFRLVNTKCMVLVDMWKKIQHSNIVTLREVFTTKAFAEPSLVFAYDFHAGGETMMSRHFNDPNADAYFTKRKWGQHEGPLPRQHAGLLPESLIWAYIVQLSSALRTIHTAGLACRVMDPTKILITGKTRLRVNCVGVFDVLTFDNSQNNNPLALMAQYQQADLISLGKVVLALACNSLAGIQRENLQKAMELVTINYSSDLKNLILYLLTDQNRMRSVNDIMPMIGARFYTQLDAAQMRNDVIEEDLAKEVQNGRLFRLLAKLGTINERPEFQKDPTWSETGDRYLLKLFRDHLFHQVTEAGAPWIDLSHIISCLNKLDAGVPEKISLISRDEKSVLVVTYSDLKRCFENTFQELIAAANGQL
In words: Inhibition of PAN3 KD labeling site in human Huh-7 cells at 1 uM by KiNativ Profiling analysis relative to control. It counts as cell-based.

Test [7] deals with Peripheral plasma membrane protein CASK (Homo sapiens) (UniProt O14936). The experiment in a line: Inhibition of CASK K1 labeling site in human Huh-7 cells at 1 uM by KiNativ Profiling analysis relative to control.
Test [8] deals with Casein kinase I isoform alpha (Homo sapiens) (UniProt P48729). In words: Inhibition of CK1a Lys2 labeling site in human Huh-7 cells at 1 uM by KiNativ Profiling analysis relative to control. It counts as cell-based.
Sequence of Casein kinase I isoform alpha (Homo sapiens) (P48729 2-337 limits assumed): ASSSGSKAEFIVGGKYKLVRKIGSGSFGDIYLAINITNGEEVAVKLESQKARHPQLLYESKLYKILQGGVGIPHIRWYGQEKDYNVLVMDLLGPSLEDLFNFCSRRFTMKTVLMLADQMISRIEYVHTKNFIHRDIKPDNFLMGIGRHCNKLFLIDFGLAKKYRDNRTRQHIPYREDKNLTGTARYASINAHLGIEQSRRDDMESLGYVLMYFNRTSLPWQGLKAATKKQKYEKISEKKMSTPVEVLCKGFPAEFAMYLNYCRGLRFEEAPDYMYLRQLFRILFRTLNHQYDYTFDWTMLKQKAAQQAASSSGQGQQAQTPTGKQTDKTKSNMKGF

Sequence of Peripheral plasma membrane protein CASK (Homo sapiens) (O14936 whole entry, looked up, canonical isoform): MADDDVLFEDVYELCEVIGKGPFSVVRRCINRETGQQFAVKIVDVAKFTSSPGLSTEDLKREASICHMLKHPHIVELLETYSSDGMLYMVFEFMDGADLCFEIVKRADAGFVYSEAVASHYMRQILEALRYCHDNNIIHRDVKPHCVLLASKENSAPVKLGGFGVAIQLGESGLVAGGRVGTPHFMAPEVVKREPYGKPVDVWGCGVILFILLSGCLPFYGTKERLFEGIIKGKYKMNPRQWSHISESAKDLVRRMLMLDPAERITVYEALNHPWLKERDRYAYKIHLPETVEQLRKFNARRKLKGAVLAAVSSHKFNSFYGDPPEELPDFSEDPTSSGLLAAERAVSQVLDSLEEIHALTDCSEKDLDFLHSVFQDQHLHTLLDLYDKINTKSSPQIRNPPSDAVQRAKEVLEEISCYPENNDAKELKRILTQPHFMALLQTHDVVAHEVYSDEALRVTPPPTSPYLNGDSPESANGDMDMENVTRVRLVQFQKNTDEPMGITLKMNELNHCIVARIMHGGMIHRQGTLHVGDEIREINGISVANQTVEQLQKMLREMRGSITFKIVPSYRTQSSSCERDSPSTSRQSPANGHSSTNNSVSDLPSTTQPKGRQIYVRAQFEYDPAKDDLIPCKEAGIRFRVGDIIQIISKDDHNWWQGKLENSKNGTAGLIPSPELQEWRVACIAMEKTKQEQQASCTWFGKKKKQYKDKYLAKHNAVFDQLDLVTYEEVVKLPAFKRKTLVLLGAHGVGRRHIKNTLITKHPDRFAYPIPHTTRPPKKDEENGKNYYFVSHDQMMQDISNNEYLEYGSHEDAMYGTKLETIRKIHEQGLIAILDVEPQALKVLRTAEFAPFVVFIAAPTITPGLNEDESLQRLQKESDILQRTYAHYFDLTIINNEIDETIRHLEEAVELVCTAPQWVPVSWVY
Sequence of Cyclin-dependent kinase 11B (Homo sapiens) (P21127 whole entry): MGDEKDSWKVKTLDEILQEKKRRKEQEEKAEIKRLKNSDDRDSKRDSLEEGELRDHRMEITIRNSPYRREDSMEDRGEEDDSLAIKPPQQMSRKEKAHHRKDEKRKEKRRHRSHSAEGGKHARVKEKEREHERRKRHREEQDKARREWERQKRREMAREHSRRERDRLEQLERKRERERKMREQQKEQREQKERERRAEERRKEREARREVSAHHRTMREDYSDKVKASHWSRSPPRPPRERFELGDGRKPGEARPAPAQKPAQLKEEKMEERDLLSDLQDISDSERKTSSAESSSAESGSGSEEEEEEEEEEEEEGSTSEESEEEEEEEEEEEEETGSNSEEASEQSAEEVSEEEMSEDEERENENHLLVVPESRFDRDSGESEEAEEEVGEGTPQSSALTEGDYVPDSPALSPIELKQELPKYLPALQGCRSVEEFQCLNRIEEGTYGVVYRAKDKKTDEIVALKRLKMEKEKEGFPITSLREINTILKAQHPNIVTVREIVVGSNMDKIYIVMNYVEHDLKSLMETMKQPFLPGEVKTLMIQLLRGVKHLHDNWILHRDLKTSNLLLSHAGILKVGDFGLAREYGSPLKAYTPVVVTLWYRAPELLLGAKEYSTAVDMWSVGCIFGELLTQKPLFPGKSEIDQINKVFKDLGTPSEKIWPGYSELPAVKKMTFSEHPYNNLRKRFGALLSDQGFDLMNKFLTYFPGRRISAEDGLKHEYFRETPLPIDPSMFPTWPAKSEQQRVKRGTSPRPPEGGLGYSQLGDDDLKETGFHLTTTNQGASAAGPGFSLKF

In the case of `CCN1CCN(Cc2ccc(NC(=O)c3ccc(C)c(Oc4ccnc5[nH]ccc45)c3)cc2C(F)(F)F)CC1`, the inhibition (as a rule, the relative decrease from the control value, in per cent) in test [1] was 0.35%; in test [2], -2.4%; in test [3] it was 51.2%; in test [4] it was 98%; in test [6], 13.4%; in test [7], 3.8%. In addition, the inhibition at 1 µM in test [5] is -5.3%.

In the case of `CNc1cc(Oc2cc(C(=O)Nc3cc(N4CCN(C)CC4)cc(C(F)(F)F)c3)ccc2C)ncn1`, the inhibition in test [8] was -1.9%.
